Reference: patent US9242937B2, “Pharmaceutically active disubstituted pyridine derivatives” (Bayer Intellectual Property GmbH, priority 2011, dated 2016)
Values belong to the compound of their own block, whether it stands above or below them.

Experiments:
[1] = biological target: T1, CDK2/CyclinA (Homo sapiens, UniProt P24941); experiment: LanthaScreen Eu Kinase Binding Assay, CDK2; conditions: tracer 236, read-out: CDK2 (activity range), Kd
T1 construct: purchased Proqinase
Procedure: (§1) This protocol describes how the LanthaScreen Eu Kinase Binding Assay was performed to determine dissociation constants (Kd) of compounds of general formula (I) and CDK/Cyclin complexes. The principle behind this assay is based upon the binding and displacement of an Alexa Fluor 647-labeled tracer, which binds to the active site of kinases. Binding of the tracer to the kinase is detected using a Eu-labeled antibody. Simultaneous binding of both the tracer and antibody to the kinase gives rise to a FRET-signal. Binding of an inhibitor to the kinase competes for binding with the tracer, resulting in a loss of FRET.
(§2) The compounds of general formula (I) summarized in Table 1 were diluted from a 10 mM DMSO stock solution 1:10 in a total volume of 15 μL DMSO. This compound predilution was then serial diluted 1:3 over 8 steps in DMSO and briefly spun down. Each compound solution was now diluted 1:33.33 in kinase buffer (HEPES: 20 mM, pH: 8.0; MgCl2: 10 mM; DTT: 1 mM; Brij-35: 0.01%), mixed thoroughly and spun down. For every sample, 5 μL of the diluted compound were mixed with 5 μL tracer working solution (e.g. 60 nM tracer 236 in kinase buffer for CDK2/Cyclin A) and 5 μL CDK/Cyclin/Anti-GST-AB-working solution (e.g. 15 nM CDK2/Cyclin A, 1:250 dilution of Anti-GST-AB in kinase buffer) in a well of a small volume 384 well plate (Corning Incorporated, Corning, N.Y., USA; order no. 3673). The tracer concentration was adjusted to its dissociation constant (Kd) for the CDK/Cyclin, which was 30 nM for CDK2/Cyclin A, CDK7/Cyclin H and CDK9/Cyclin T1, 20 nM for CDK8/Cyclin C, and 35 nM for CDK9/Cyclin K. For negative controls, in each well 5 μL of DMSO working solution (3% DMSO diluted in kinase buffer) was mixed with 5 μL Anti-GST-AB working solution (e.g. 1:250 dilution of Anti-GST-AB in kinase buffer for CDK2/Cyclin A) and 5 μL Tracer working solution (e.g. 60 nM Tracer 236 in kinase buffer for CDK2/Cyclin A). For positive controls, in each well 5 μL of DMSO working solution (3% DMSO diluted in kinase buffer) was mixed with 5 μL CDK/Cyclin/Anti-GST-AB-working solution: (e.g. 15 nM CDK2/Cyclin A, 1:250 dilution of Anti-GST-AB in kinase buffer) and 5 μL Tracer working solution (e.g. 60 nM Tracer 236 in kinase buffer for CDK2/Cyclin A). Positive and negative controls were calculated from at least 8 different sample wells. The 384 well plates were mixed in a Teleshaker plate mixer (Beckman Coulter, Brea, Calif., USA) at 2000 rpm for 40 sec, and incubated for 1 h at room temperature before reading. The FRET signal was measured at 340 nm excitation, 665 nm and 615 nm emission (for the kinase tracer and LanthaScreen Eu-AB, respectively) with an Envision spectrophotometer (Perkin Elmer, Waltham, Mass., USA) with 50 μs delay and 300 μs integration time. Kd values were determined from the sigmoidal dose response curves with the software Quattro Workflow (Quattro GmbH, Munich, Germany).

[2] = biological target: T2, CDK9/Cyclin K (Homo sapiens, UniProt P50750); experiment: LanthaScreen Eu Kinase Binding Assay, CDK9/Cyclin K; conditions: tracer 236, read-out: CDK9/Cyclin K (activity range), Kd
T2 construct: purchased Invitrogen
Procedure: as §1, §2

[3] = biological target: T3, CDK1/CyclinB1 (Homo sapiens, UniProt P06493); experiment: Lance Ultra KinaSelect Assay, CDK1; assay type: biochemical; conditions: ULight MBP substrate, ATP 20 μM; read-out: CDK1 LANCE assay (activity range), IC50
T3 construct: purchased Carna
Procedure: (§3) This protocol describes how the Lance Ultra KinaSelect Assay was performed to determine half maximal inhibitory concentration (IC50) of compounds of general formula (I) and CDK/Cyclin complexes. The principle behind this enzymatic assay is based upon the phosphorylation of the ULight-Peptide Substrat. It is detected by using a specific EU-labeled anti-phospho peptide antibody. The binding of the Eu-labeled anti-phospho peptide antibody to the phosphorylated ULight labeled peptide gives rise to a FRET-signal. Binding of an inhibitor to the kinase prevents phosphorylation of the ULight-MBP Substrat, resulting in a loss of FRET.
(§4) The compounds of general formula (I) summarized in Table 5 were diluted from a 10 mM DMSO stock solution 1:10 in a total volume of 15 μL DMSO. […] Positive and negative controls were calculated from at least 8 different sample wells. […] Before reading, 10 μL the detection buffer (Lance Detection Buffer 1×; EDTA: […]; Eu-Anti-P-MBP: see Table 3) was added. The FRET signal was measured at 340 nm excitation, 665 nm and 615 nm emission (for the kinase tracer and LanthaScreen Eu-AB, respectively) with an Envision spectrophotometer (Perkin Elmer, Waltham, Mass., USA) with 50 μs delay and 300 μs integration time. IC50 values were determined from the sigmoidal dose response curves with the software Quattro Workflow (Quattro GmbH, Munich, Germany).

[4] = biological target: T4, CDK4/CyclinD1 (Homo sapiens, UniProt P11802); experiment: Lance Ultra KinaSelect Assay, CDK4; assay type: biochemical; conditions: ULight MBP substrate, ATP 90 μM; read-out: CDK4 LANCE assay (activity range), IC50
T4 construct: purchased Invitrogen
Procedure: as §3, §4

[5] = biological target: T5, CDK6/CyclinD3 (Homo sapiens, UniProt Q00534); experiment: Lance Ultra KinaSelect Assay, CDK6; assay type: biochemical; conditions: ULight MBP substrate, ATP 55 μM; read-out: CDK6 LANCE assay (activity range), IC50
T5 construct: purchased Carna
Procedure: as §3, §4

T2 sequence (P50750 whole entry): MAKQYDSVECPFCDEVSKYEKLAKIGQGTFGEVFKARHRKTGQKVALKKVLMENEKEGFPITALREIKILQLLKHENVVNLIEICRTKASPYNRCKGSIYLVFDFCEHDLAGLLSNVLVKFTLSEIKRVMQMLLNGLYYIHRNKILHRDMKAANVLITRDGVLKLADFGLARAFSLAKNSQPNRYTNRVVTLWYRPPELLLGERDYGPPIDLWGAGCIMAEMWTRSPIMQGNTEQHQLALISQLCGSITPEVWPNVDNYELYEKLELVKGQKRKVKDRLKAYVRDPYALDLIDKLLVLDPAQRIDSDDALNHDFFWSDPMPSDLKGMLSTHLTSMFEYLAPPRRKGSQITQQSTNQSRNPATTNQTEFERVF
T2 sequence (O75909 1-357 isoform O75909-1 partner): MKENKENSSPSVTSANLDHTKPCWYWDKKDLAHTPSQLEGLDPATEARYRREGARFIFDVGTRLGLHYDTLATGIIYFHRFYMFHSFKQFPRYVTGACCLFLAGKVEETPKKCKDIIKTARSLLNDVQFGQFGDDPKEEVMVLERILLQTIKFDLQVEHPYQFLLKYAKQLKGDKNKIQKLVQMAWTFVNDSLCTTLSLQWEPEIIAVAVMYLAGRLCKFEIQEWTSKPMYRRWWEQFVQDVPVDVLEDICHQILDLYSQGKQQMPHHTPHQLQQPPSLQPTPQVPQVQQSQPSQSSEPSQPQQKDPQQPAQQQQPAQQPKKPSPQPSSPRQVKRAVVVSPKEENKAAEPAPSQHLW
T5 sequence (Q00534 whole entry): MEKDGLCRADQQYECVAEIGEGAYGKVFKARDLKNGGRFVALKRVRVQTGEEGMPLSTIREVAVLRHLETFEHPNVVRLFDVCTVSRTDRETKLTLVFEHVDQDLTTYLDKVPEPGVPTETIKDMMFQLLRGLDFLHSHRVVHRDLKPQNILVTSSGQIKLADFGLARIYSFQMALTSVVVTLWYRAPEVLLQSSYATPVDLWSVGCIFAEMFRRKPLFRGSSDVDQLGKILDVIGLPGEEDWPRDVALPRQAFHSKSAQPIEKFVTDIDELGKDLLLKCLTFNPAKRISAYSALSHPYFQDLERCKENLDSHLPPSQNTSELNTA
T5 sequence (P30281 whole entry partner): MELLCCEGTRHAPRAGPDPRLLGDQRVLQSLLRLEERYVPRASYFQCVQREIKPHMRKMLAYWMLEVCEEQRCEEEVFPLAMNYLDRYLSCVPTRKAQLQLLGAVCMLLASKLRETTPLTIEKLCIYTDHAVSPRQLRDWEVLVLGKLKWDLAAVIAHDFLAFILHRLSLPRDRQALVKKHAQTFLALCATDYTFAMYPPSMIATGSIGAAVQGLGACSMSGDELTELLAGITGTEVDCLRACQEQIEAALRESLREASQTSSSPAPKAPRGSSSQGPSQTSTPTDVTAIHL
T4 sequence (P11802 whole entry): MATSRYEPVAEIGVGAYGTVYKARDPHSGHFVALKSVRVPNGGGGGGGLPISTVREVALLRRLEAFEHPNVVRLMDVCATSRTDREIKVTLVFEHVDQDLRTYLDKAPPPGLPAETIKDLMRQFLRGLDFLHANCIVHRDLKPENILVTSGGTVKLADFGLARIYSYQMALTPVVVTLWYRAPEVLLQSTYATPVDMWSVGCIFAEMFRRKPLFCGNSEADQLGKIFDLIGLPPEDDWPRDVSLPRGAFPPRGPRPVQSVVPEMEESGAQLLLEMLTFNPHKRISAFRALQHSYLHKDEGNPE
T4 sequence (P24385 whole entry partner): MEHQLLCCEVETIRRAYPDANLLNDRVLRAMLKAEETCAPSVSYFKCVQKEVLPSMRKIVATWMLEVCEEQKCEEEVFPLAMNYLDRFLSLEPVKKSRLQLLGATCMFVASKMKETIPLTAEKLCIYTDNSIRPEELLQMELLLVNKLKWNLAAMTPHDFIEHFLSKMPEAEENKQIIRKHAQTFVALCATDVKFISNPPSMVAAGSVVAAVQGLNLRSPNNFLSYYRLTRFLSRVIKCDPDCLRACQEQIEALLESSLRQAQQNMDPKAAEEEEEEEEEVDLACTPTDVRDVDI
T3 sequence (P06493 whole entry): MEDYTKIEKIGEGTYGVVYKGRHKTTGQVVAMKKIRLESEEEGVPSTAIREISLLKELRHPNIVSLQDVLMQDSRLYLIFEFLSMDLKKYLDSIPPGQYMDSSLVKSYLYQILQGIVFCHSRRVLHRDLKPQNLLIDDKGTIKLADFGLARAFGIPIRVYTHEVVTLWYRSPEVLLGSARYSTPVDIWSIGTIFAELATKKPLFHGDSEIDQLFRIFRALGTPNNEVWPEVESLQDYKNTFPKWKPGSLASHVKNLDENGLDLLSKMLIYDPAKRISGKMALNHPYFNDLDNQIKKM
T3 sequence (P14635 whole entry partner): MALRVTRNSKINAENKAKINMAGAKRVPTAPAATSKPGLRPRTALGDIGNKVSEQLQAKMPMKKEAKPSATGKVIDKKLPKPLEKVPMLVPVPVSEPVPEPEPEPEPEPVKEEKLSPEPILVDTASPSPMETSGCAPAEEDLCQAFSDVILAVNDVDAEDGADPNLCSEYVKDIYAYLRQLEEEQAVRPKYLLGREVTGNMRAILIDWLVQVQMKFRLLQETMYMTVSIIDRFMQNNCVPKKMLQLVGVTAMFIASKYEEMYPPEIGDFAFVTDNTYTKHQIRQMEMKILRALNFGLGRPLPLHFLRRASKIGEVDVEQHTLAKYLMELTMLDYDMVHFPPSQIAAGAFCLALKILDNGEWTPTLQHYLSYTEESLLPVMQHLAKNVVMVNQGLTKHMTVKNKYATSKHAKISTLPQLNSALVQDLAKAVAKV

Kd [2]: < 100 nM
Kd [1]: < 100 nM
SMILES: COc1ccccc1-c1ccnc(Nc2ccc(S(N)(=O)=O)cc2)c1 [Compound E1, 4-[(4-(2-Methoxyphenyl)pyridin-2-yl)amino]benzenesulfonamide]

Kd [2]: 100 to 1000 nM
SMILES: COc1ccccc1-c1ccnc(Nc2cccc([N+](=O)[O-])c2)c1 [Compound C1, 4-(2-Methoxyphenyl)-N-(3-nitrophenyl)pyridin-2-amine]

Kd [2]: < 100 nM
Kd [1]: 100 to 1000 nM
IC50 [3]: 1000 to 10000 nM
IC50 [4]: 1000 to 10000 nM
IC50 [5]: > 10000 nM
SMILES: COc1cc(F)ccc1-c1ccnc(Nc2cccc(CS(N)(=O)=O)c2)c1 [Compound G1, [3-((4-(4-Fluoro-2-methoxyphenyl)pyridin-2-yl)amino)phenyl]-methanesulfonamide]

The next lines start with the compound.

SMILES: COc1cc(F)ccc1-c1ccnc(Nc2cccc(CS(=O)(=O)N(C)C)c2)c1 [Compound G3, 1-[3-((4-(4-Fluoro-2-methoxyphenyl)pyridin-2-yl)amino)phenyl]-N,N-dimethylmethanesulfonamide]
Kd [1]: 100 to 1000 nM

SMILES: COc1cc(F)ccc1-c1ccnc(Nc2cccc(NS(C)(=O)=O)c2)c1 [Compound J1, N-[3-((4-(4-Fluoro-2-methoxyphenyl)pyridin-2-yl)amino)phenyl]-methanesulfonamide]
Kd [1]: < 100 nM

SMILES: COc1ccccc1-c1ccnc(Nc2cccc(S(C)(=O)=O)c2)c1 [Compound F1, 4-(2-Methoxyphenyl)-N-(3-(methylsulfonyl)phenyl)pyridin-2-amine]
Kd [2]: < 100 nM
Kd [1]: 100 to 1000 nM

SMILES: COc1cc(F)ccc1-c1ccnc(Nc2cccc(NC(C)=O)c2)c1 [Compound J2, N-[3-((4-(4-Fluoro-2-methoxyphenyl)pyridin-2-yl)amino)phenyl]-acetamide]
Kd [1]: 100 to 1000 nM

SMILES: CCCNS(=O)(=O)Cc1cccc(Nc2cc(-c3ccc(F)cc3OC)ccn2)c1 [Compound K1, 1-[3-((4-(4-Fluoro-2-methoxyphenyl)pyridin-2-yl)amino)phenyl]-N-propylmethanesulfonamide]
Kd [1]: 100 to 1000 nM

SMILES: COc1ccccc1-c1ccnc(Nc2cccc(S(N)(=O)=O)c2)c1 [Compound D1, 3-[(4-(2-Methoxyphenyl)pyridin-2-yl)amino]benzenesulfonamide]
Kd [2]: < 100 nM
Kd [1]: < 100 nM
IC50 [3]: 1000 to 10000 nM
IC50 [4]: > 10000 nM
IC50 [5]: > 10000 nM
